# Earlier results in patent publication US20250114486A1, “MARKED FATTY ACID DERIVATIVE, PRECURSOR COMPOUND THEREOF, AND USE THEREOF IN CONTRAST AGENT” (BEIJING NORMAL UNIVERSITY, priority 2022, published 2025).
# Like-named read-outs stand apart in the source and are kept apart here.
# Conditions: female SD rats, cited from earlier work
# [1] = 30 min after injection, reference 3
# [2] = 30 min post-injection, reference 2
# [3] = 60 min after injection, reference 2
# [4] = 60 min after injection, reference 3
# [5] = 60 min post-injection, reference 1
# [6] = 60 min post-injection, reference 2
# [7] = 120 min after injection, reference 3
# [8] = 120 min post-injection, reference 1
structure (smiles),measurement,setting,value
[99Tc].[C-]#[N+]CC(C)(C)OC.[C-]#[N+]CC(C)(C)OC.[C-]#[N+]CC(C)(C)OC.[C-]#[N+]CC(C)(C)OC.[C-]#[N+]CC(C)(C)OC.[C-]#[N+]CC(C)(C)OC [^99mTc-MIBI],absolute myocardial uptake value,"10 min after injection, reference 2",3.26±0.18 % ID/g
same,absolute myocardial uptake value,"10 min post-injection, reference 1",3.70 % Dose/g
same,absolute myocardial uptake value,"20 min after injection, reference 2",3.07 0.21 % ID/g
same,absolute myocardial uptake value,"30 min after injection, reference 2",3.13±0.12 % ID/g
same,Heart-to-Blood ratio,[1],114.6±34.70
same,absolute myocardial uptake value,[1],3.16±0.56 % ID/g
same,absolute myocardial uptake value,"30 min post-injection, reference 1",3.16 % Dose/g
same,Heart-to-Blood ratio,[2],104.30
same,Heart-to-Lungs ratio,[2],4.66±0.24
same,Heart-to-Lungs ratio,"30 min post-injection, reference 3",3.57±0.72
same,Heart-to-Liver ratio,[3],2.65±0.22
same,absolute myocardial uptake value,[3],3.29±0.12 % ID/g
same,Heart-to-Blood ratio,[4],137.80±35.00
same,Heart-to-Liver ratio,[4],4.25±0.84
same,absolute myocardial uptake value,[4],3.14±0.42 % ID/g
same,Heart-to-Liver ratio,[5],2.04±0.17
same,Heart-to-Lungs ratio,[5],6.77±0.55
same,absolute myocardial uptake value,[5],3.04 % Dose/g
same,Heart-to-Blood ratio,[6],164.50
same,Heart-to-Lungs ratio,[6],7.32±0.28
same,Heart-to-Lungs ratio,"60 min post-injection, reference 3",6.41±1.25
same,Heart-to-Blood ratio,[7],209.00±12.40
same,Heart-to-Liver ratio,[7],4.52±1.57
same,absolute myocardial uptake value,[7],2.83±0.25 % ID/g
same,Heart-to-Liver ratio,[8],2.96±0.34
same,Heart-to-Lungs ratio,[8],6.48±0.51
same,Heart-to-Lungs ratio,"120 min post-injection, reference 3",7.97±1.89
